US20230399312A1, “SUBSTITUTED PYRIMIDINES AND METHODS OF USE” (THERAVANCE BIOPHARMA R&D IP, LLC, priority 2020, published 2023)

Columns and labels:
[1] = target: T1, recombinant human ALK5 (TGF-βR1) protein (Homo sapiens, UniProt P36897); assay: Biochemical ALK5 (TGF-βR1) assay to measure pKi (LANCE Ultra ULight kinase assay); settings: apparent pKi, converted from pIC50 by Cheng-Prusoff
T1 construct: purchased Life Technologies PR9075A
T1 sequence (P36897 34-503): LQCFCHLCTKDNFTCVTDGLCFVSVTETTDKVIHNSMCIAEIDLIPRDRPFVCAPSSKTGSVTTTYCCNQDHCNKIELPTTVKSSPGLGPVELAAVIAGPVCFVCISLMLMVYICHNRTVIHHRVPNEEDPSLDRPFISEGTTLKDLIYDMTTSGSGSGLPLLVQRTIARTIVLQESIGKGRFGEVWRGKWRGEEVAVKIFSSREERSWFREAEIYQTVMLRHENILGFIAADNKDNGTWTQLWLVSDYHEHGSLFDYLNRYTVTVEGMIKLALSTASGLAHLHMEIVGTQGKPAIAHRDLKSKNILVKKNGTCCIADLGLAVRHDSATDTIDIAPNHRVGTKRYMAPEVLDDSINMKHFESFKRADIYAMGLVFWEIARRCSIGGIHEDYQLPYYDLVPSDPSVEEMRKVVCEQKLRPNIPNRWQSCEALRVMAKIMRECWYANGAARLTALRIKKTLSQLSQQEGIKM
In short: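 Dose-response series of each compound were preincubated with the kinase for 60 minutes at room temperature. Phosphorylation proceeded for 60 minutes at 37 °C after ATP addition, was quenched with EDTA, and was detected with a europium anti-phospho-Thr1342 antibody by TR-FRET; pKi was calculated from pIC50.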

[2] = tested on: TGF-β-stimulated SMAD3 phosphorylation in BEAS-2B cells; assay: Cellular ALK5 potency assay, inhibition of TGF-β stimulated pSMAD3 formation in BEAS-2B cells; assay type: cell-based; settings: Homo sapiens, pSMAD3, TGF-β 10 ng/mL, read-out: BEAS2B pIC50 (converted)
In short: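 Human lung epithelial BEAS-2B cells were pre-treated with compound for 1 h at 37 °C, then stimulated with TGF-β (final 10 ng/mL) for 30 min before lysis. pSMAD3 was quantified by AlphaLISA and pIC50 derived from dose-dependent signal change versus TGF-β-stimulated untreated cells.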

SMILES	Ki [1] [nM]	IC50 [2] [nM]
Cc1cccc(-c2nc(C)cc(Nc3ccnc(Nc4ccc(N5CCN(C)CC5)cc4)n3)n2)n1 [Compound 222, N4-[6-methyl-2-(6-methyl-2-pyridyl)pyrimidin-4-yl]-N2-[4-(4-methylpiperazin-1-yl)phenyl]pyrimidine-2,4-diamine]	0.0398 to 0.316	25.1 to 158
Cc1cccc(-c2nccc(Nc3ccnc(Nc4ccc5c(c4)CCN(C(C)C)CC5)n3)n2)n1 [Compound 223, N2-(3-isopropyl-2,3,4,5-tetrahydro-1H-benzo[d]azepin-7-yl)-N4-(2-(6-methylpyridin-2-yl)pyrimidin-4-yl)pyrimidine-2,4-diamine]	≤ 0.0316	25.1 to 158
Cc1cccc(-c2nccc(Nc3ccnc(Nc4ccc(CN5CCC[C@H](C(=O)O)C5)cc4)n3)n2)n1 [Compound 224, (3S)-1-[[4-[[4-[[2-(6-methyl-2-pyridyl)pyrimidin-4-yl]amino]pyrimidin-2-yl]amino]phenyl]methyl] piperidine-3-carboxylic acid]	0.0398 to 0.316	200 to 1260
Cc1cccc(-c2nccc(Nc3ccnc(Nc4ccc5c(c4)NCCC5)n3)n2)n1 [Compound 225, N4-[2-(6-methyl-2-pyridyl)pyrimidin-4-yl]-N2-(1,2,3,4-tetrahydroquinolin-7-yl)pyrimidine-2,4-diamine]	0.0398 to 0.316	25.1 to 158
Cc1cccc(-c2nccc(Nc3ccnc(Nc4nc(C)cs4)n3)n2)n1 [Compound 226, N4-[2-(6-methyl-2-pyridyl)pyrimidin-4-yl]-N2-(4-methylthiazol-2-yl)pyrimidine-2,4-diamine]	3.98 to 31.6	25.1 to 158
Cc1cccc(-c2nccc(Nc3ccnc(Nc4cccc(NC(=O)C5CCNC5)c4)n3)n2)n1 (stereo not shown) [Compound 227, N-[3-[[4-[[2-(6-methyl-2-pyridyl)pyrimidin-4-yl]amino]pyrimidin-2-yl]amino]phenyl]pyrrolidine-3-carboxamide]	0.0398 to 0.316	≤ 20
Cc1cccc(-c2nccc(Nc3ccnc(Nc4ccc(NC(=O)N5CCNCC5)cc4)n3)n2)n1 [Compound 228, N-(4-((4-((2-(6-methylpyridin-2-yl)pyrimidin-4-yl)amino)pyrimidin-2-yl)amino)phenyl)piperazine-1-carboxamide]	0.0398 to 0.316	25.1 to 158
Cc1cccc(-c2nccc(Nc3ccnc(Nc4ccc(NS(=O)(=O)C5CCNCC5)cc4)n3)n2)n1 [Compound 229, N-[4-[[4-[[2-(6-methyl-2-pyridyl)pyrimidin-4-yl]amino]pyrimidin-2-yl]amino]phenyl]piperidine-4-sulfonamide]	0.0398 to 0.316	25.1 to 158
Cc1cccc(-c2nccc(Nc3ccnc(Nc4ccc(C5CCNC5)cc4)n3)n2)n1 (stereo not shown) [Compound 231, N4-[2-(6-methyl-2-pyridyl)pyrimidin-4-yl]-N2-(4-pyrrolidin-3-ylphenyl)pyrimidine-2,4-diamine]	0.0398 to 0.316	25.1 to 158
Cc1cccc(-c2nccc(Nc3ccnc(Nc4ccc(-c5cn6c(n5)CNCC6)cc4)n3)n2)n1 [Compound 232, N4-[2-(6-methyl-2-pyridyl)pyrimidin-4-yl]-N2-[4-(5,6,7,8-tetrahydroimidazo[1,2-a]pyrazin-2-yl)phenyl]pyrimidine-2,4-diamine]	0.0398 to 0.316	25.1 to 158
Cc1cccc(-c2nccc(Nc3ccnc(Nc4cccc(N5CCN(C)CC5)c4)n3)n2)n1 [Compound 233, N2-[3-(4-methylpiperazin-1-yl)phenyl]-N4-[2-(6-methyl-2-pyridyl)pyrimidin-4-yl]pyrimidine-2,4-diamine]	0.0398 to 0.316	25.1 to 158
Cc1cccc(-c2nccc(Nc3ccnc(Nc4ccc(Br)cc4)n3)n2)n1 [Compound 234, N2-(4-bromophenyl)-N4-[2-(6-methyl-2-pyridyl)pyrimidin-4-yl]pyrimidine-2,4-diamine]	3.98 to 31.6	25.1 to 158
Cc1cccc(-c2nccc(Nc3ccnc(Nc4ccc(N5CCN(CC6CCC(=O)O6)CC5)cc4)n3)n2)n1 (stereo not shown) [Compound 235, 5-[[4-[4-[[4-[[2-(6-methyl-2-pyridyl)pyrimidin-4-yl]amino]pyrimidin-2-yl]amino]phenyl]piperazin-1-yl]methyl]tetrahydrofuran-2-one]	0.0398 to 0.316	≤ 20
COC(=O)C1CN(CCNc2ccc(Nc3nccc(Nc4ccnc(-c5cccc(C)n5)n4)n3)cc2)CCN1C (stereo not shown) [Compound 236, methyl 1-methyl-4-[2-[4-[[4-[[2-(6-methyl-2-pyridyl)pyrimidin-4-yl]amino]pyrimidin-2-yl]amino]anilino]ethyl] piperazine-2-carboxylate]	0.398 to 3.16	25.1 to 158
Cc1cccc(-c2nccc(Nc3ccnc(Nc4ccc(CN5CC(C(=O)O)C5)cc4)n3)n2)n1 [Compound 237, 1-[[4-[[4-[[2-(6-methyl-2-pyridyl)pyrimidin-4-yl]amino]pyrimidin-2-yl]amino]phenyl]methyl] azetidine-3-carboxylic acid]	0.0398 to 0.316	200 to 1260
Cc1cccc(-c2nccc(Nc3ccnc(Nc4ccc(Cl)c(CN5CCN(C)CC5)c4)n3)n2)n1 [Compound 238, N2-[4-chloro-3-[(4-methylpiperazin-1-yl)methyl]phenyl]-N4-[2-(6-methyl-2-pyridyl)pyrimidin-4-yl]pyrimidine-2,4-diamine]	0.0398 to 0.316	25.1 to 158
Cc1cccc(-c2nccc(Nc3ccnc(Nc4ccc(C(=O)OC5CCNCC5)s4)n3)n2)n1 [Compound 239, 4-piperidyl 5-[[4-[[2-(6-methyl-2-pyridyl)pyrimidin-4-yl]amino]pyrimidin-2-yl]amino]thiophene-2-carboxylate]	0.0398 to 0.316	25.1 to 158
Cc1cccc(-c2nccc(Nc3ccnc(Nc4ccc(CN5C[C@@H](C)N[C@@H](C)C5)cc4)n3)n2)n1 [Compound 240, N2-[4-[[(3R,5S)-3,5-dimethylpiperazin-1-yl]methyl]phenyl]-N4-[2-(6 methyl-2-pyridyl)pyrimidin-4-yl]pyrimidine-2,4-diamine]	0.0398 to 0.316	25.1 to 158
CCOC(=O)CC1CNCCN1c1ccc(Nc2nccc(Nc3ccnc(-c4cccc(C)n4)n3)n2)cc1 (stereo not shown) [Compound 241, ethyl 2-[1-[4-[[4-[[2-(6-methyl-2-pyridyl)pyrimidin-4-yl]amino]pyrimidin-2-yl]amino]phenyl]piperazin-2-yl]acetate]	0.0398 to 0.316	25.1 to 158
Cc1cccc(-c2nccc(Nc3ccnc(Nc4ccc(CN5CCOCC5)c(F)c4)n3)n2)n1 [Compound 242, N2-[3-fluoro-4-(morpholinomethyl)phenyl]-N4-[2-(6-methyl-2-pyridyl)pyrimidin-4-yl]pyrimidine-2,4-diamine]	0.0398 to 0.316	25.1 to 158
Cc1cccc(-c2nccc(Nc3ccnc(Nc4ccc(N5CCC(N(C)Cc6ccccn6)CC5)cc4)n3)n2)n1 [Compound 243, N2-[4-[4-[methyl(2-pyridylmethyl)amino]-1-piperidyl]phenyl]-N4-[2-(6-methyl-2-pyridyl)pyrimidin-4-yl]pyrimidine-2,4-diamine]	0.0398 to 0.316	25.1 to 158
Cc1cccc(-c2nccc(Nc3ccnc(Nc4ccc(F)c(CN5CCN(C)CC5)c4)n3)n2)n1 [Compound 244, N2-[4-fluoro-3-[(4-methylpiperazin-1-yl)methyl]phenyl]-N4-[2-(6-methyl-2-pyridyl)pyrimidin-4-yl]pyrimidine-2,4-diamine]	0.0398 to 0.316	25.1 to 158
Cc1cccc(-c2nccc(Nc3ccnc(Nc4cnn(C5CCNC5)c4)n3)n2)n1 (stereo not shown) [Compound 245, N4-[2-(6-methyl-2-pyridyl)pyrimidin-4-yl]-N2-(1-pyrrolidin-3-ylpyrazol-4-yl)pyrimidine-2,4-diamine]	0.0398 to 0.316	200 to 1260
CN(C)C1CCN(c2ccc(Nc3nccc(Nc4ccnc(-c5cc(Cl)c(F)cc5F)n4)n3)cc2)CC1 [Compound 246, N4-[2-(5-chloro-2,4-difluoro-phenyl)pyrimidin-4-yl]-N2-[4-[4-(dimethylamino)-1-piperidyl]phenyl]pyrimidine-2,4-diamine]	0.0398 to 0.316	25.1 to 158
Cc1cccc(-c2nccc(Nc3ccnc(Nc4ccc(C)c(CN5CCNCC5)c4)n3)n2)n1 [Compound 247, N2-[4-methyl-3-(piperazin-1-ylmethyl)phenyl]-N4-[2-(6-methyl-2-pyridyl)pyrimidin-4-yl]pyrimidine-2,4-diamine]	0.0398 to 0.316	25.1 to 158
Cc1cccc(-c2nccc(Nc3ccnc(Nc4ccc(CN5CCC(C(=O)OC6CCN(C)C6)CC5)cc4)n3)n2)n1 (stereo not shown) [Compound 248, (1-methylpyrrolidin-3-yl) 1-[[4-[[4-[[2-(6-methyl-2-pyridyl)pyrimidin-4-yl]amino]pyrimidin-2-yl]amino]phenyl]methyl] piperidine-4-carboxylate]	0.0398 to 0.316	25.1 to 158
